Laboratory results taken from US5359135A, “Triasulfurone compounds” (priority 1990, dated 1994).

What was measured:
Assay type in all cases: binding, mouse (Balb/c)
Details in all cases: for Cross-reactivity: (triasulfurone conc. for 50% inhibition/analog conc. for 50% inhibition) × 100
MAb 4149-1-1 = experiment: competitive ELISA, triasulfurone and analogs with MAb 4149-1-1 (Table 1)
Text: (§1) As defined within the context of this invention, the percentage of cross-reactivity is represented by the following equation: [triasulfurone concentration for 50% inhibition (I50)/concentration of the triasulfurone analogs for 50% inhibition (I50)]×100.
(§2) The I50 value can be determined, for example, by means of a competitive ELISA assay (see Example 8). In that case the I50 value corresponds, for example, to the antigen concentration that leads to a 50% inhibition of the binding of the antibody to the carrier-bound antigen.
(§3) The detection of triasulfurone is effected by means of a two-step competitive ELISA test.
(§4) BSA-conjugated hapten, prepared in accordance with Example 1.3.1 or 1.3.2, in a 50mM sodium carbonate buffer (pH 9.6) (200 ng of BSA-conjugated hapten/100 μl of sodium carbonate buffer) is first of all adsorbed on microtitre plates (for example Dynatech, type M 129A) and incubated overnight at a temperature of 4° C. The plates are then washed five times with PBS buffer enriched with 0.1% (v/v) polysorbate 20 (Tween 20) (PBS Tween).
(§5) The remaining free binding sites of the solid carder material are then blocked by the addition of PBS-BSA in the form of a 1% (w/v) solution. After incubation for two hours at 22° C. the plates are washed again with PBS Tween (0.1%).
(§6) 50 μl of the supernatant of the previously cloned hybridoma cells (in a dilution of 1:2000 or 1:4000) or 50 μl of the previously purified monoclonal antibodies (40-120 ng/ml) are incubated a) with 950 μl of a standard solution containing an increasing amount of triasulfurone or of triasulfurone analogs, b) with triasulfurone-containing water samples or c) with triasulfurone-containing soil extracts. [All dilutions are carried out in PBS Tween (0.1%)].
(§7) After an incubation period of 1 hour at room temperature (22° C.), 200 μl of the antigen/antibody mixture are added to each well in the microtitre plate and the whole batch is incubated for a further one hour. The wells are then washed five times with PBS Tween (0.1%) and charged with 100 μl/well of goat anti-mouse IgG antibody that is conjugated to alkaline phosphatase (dilution 1:1500), and incubated for a period of 1.5 hours.
(§8) After washing again, 150 μl/well of the substrate p-nitrophenyl phosphate dissolved in 1 mg/ml of diethanolamine buffer ([…], pH 9.8, enriched with 0.5 mM MgCl2 ×6H2 O) are added to the wells.
(§9) The intensity of the colour reaction that has occurred is determined at a wavelength of 405 nm. […] All the samples are determined in triplicate.
(§10) In order to determine the amount of triasulfurone present in a sample, first of all a calibration curve is produced (FIG. 1), B/Bo×100 being plotted against the concentration of inhibitor. (Bo represents the absorption capacity measured without the addition of a triasulfurone inhibitor to the antibody, and B is the absorption capacity when triasulfurone inhibitors at various concentrations are added). The I50 value indicates the concentration of the antigen at which the binding of antibody to the solid phase is inhibited by 50%. The I50 value is determined using an ENZFITTER (Leatherbarrow, Elsevier-Biosoft) curve-calculation program based on a four-parameter logistical curve (Raab GM, 1983) and specially adapted to the prevailing conditions. The quantitative determination of triasulfurone in soil or water samples within the context of ELISA is also carried out using the ENZFITTER program, the adaptation of the curve being based on standards that run on any microtitre plate.

MAb 4134-40-1 = experiment: competitive ELISA, triasulfurone and analogs with MAb 4134-40-1 (Table 1)
Text: as §1, §2, §3, §4, §5, §6, §7, §8, §9, §10

MAb 4147-19-4 = experiment: competitive ELISA, triasulfurone and analogs with MAb 4147-19-4 (Table 1)
Text: as §1, §2, §3, §4, §5, §6, §7, §8, §9, §10

Row | SMILES | I50 (inhibitor concentration that reduces the ELISA signal by 50% in comparison to the control) (MAb 4149-1-1) | Cross-reactivity (MAb 4149-1-1) | I50 (inhibitor concentration that reduces the ELISA signal by 50% in comparison to the control) (MAb 4134-40-1) | Cross-reactivity (MAb 4134-40-1) | I50 (inhibitor concentration that reduces the ELISA signal by 50% in comparison to the control) (MAb 4147-19-4) | Cross-reactivity (MAb 4147-19-4)
1 | COC(=O)c1sccc1S(=O)(=O)NC(=O)Nc1nc(C)nc(OC)n1 [L, thiameturone-methyl] | > 1000 ng/mL | < 0.01% | > 1000 ng/mL | < 0.7% | 14.2 ng/mL | 0.6%
2 | COc1nc(C)nc(NC(=O)NS(=O)(=O)c2ccccc2Cl)n1 [M, chlorosulfurone] | 420 ng/mL | 0.01% | > 1000 ng/mL | < 0.7% | 14.3 ng/mL | 0.6%
3 | COC(=O)c1ccccc1CS(=O)(=O)NC(=O)Nc1nc(OC)cc(OC)n1 [N, bensulfurone-methyl] | > 1000 ng/mL | < 0.01% | > 1000 ng/mL | < 0.7% | > 1000 ng/mL | < 0.01%
4 | COC(=O)c1ccccc1S(=O)(=O)NC(=O)Nc1nc(C)nc(OC)n1 [O, methsulfurone-methyl] | 600 ng/mL | < 0.01% | > 1000 ng/mL | < 0.7% | 81.5 ng/mL | 0.1%
5 | COc1cc(OC)nc(NC(=O)NS(=O)(=O)c2ncccc2C(=O)N(C)C)n1 [P, nicosulfurone-methyl] | > 1000 ng/mL | < 0.01% | > 1000 ng/mL | < 0.7% | > 1000 ng/mL | < 0.01%
6 | CCS(=O)(=O)c1cccnc1S(=O)(=O)NC(=O)Nc1nc(OC)cc(OC)n1 [Q] | > 1000 ng/mL | < 0.01% | > 1000 ng/mL | < 0.7% | > 1000 ng/mL | < 0.01%
7 | CCCOC(=O)NS(=O)(=O)c1ccccc1OCCCl [R] | 0.02 ng/mL | 250.00% | 2.1 ng/mL | 342.9% | 1.9 ng/mL | 4.7%
8 | NC(=O)NS(=O)(=O)c1ccccc1OCCCl [S] | 0.02 ng/mL | 250.00% | 6.0 ng/mL | 120.0% | 2.6 ng/mL | 3.5%
9 | CCN(CC)C(=O)NS(=O)(=O)c1ccccc1OCCCl [T] | 0.01 ng/mL | 500.00% | 0.9 ng/mL | 800.0% | 17.6 ng/mL | 0.5%
10 | COc1nc(C)nc(NC(=O)NS(=O)(=O)c2ccccc2OCCCl)n1 [triasulfurone, 3-(6-methoxy-4-methyl-1,3,5-triazin-2-yl)-1-[2-(2-chloroethoxy)-phenylsulfonyl]-urea] | 0.05 ng/mL | 100.0% | 7.2 ng/mL | 100.0% | 0.09 ng/mL | 100.0%
